Patent publication US6399542B1, “Alkoxyimino-substituted bicyclic compounds compositions containing the same and method of making such compounds” (Agro-Kanesho Co., Ltd., priority 1997, dated 2002)
Where two headings read alike, the source gives them in different places.

Assays:
[1] = system: Pyricularia oryzae; type: in vivo; details: Rice blast, 7 days after inoculation
[2] = system: Psecidoperonospora cubensis; experiment: Effect on Cucumber downy mildew (preventive spray test); type: in vivo; details: 7 days after inoculation
[3] = system: Chochliobolus miyabeanus; experiment: Effect on Rice brown spot (preventive spray test); type: in vivo; details: 7 days after inoculation
[4] = system: Erysiphe graminis; experiment: Effects on Barley powdery mildew (preventive spray test); type: in vivo; details: lesions counted seven days after inoculation
[5] = system: Rhizoctonia solani; experiment: Effect on Rice sheath blight (preventive spray test); details: 10 days after inoculation
[6] = system: Puccinia recondita; experiment: Effect on Wheat brown rust (preventive spray test); type: in vivo; details: 7 days after inoculation
[7] = system: Puccinia recondite; experiment: Penetration and translocation in wheat leaves (covered leaf tip, brown rust); type: in vivo
[8] = system: Pseudoperonospora cubenis; experiment: Penetration and translocation in cucumber leaf (drop on back of leaf, downy mildew); type: in vivo; details: 10 μl drop on back of leaf, conc. of active ingredient 200 ppm, disease-free area 5 days after the spraying
Method: Four points were marked at random on the first leaf of each cucumber seedling (variety: Shogoin aonaga fushinari) in two-leaf stage in each pot having a diameter of 6 cm. […] The leaf was kept in a greenhouse for one day and then uniformly inoculated with a zoospore suspension of Pseudoperonospora cubenis by means of a spray gun, then left to stand in a high-humidity room at 24° C. for 24 hours, and kept in a greenhouse. The area of the disease-free part 5 days after the spraying was represented in terms of the index.
3: At least 40% of the area of the leaf was free from the disease.
2: 20 to 40% of the area of the leaf was free from the disease.
1: An area larger than the spot of the drop but smaller than 20% of the area of the leaf was free from the disease.
0: Only the spot of the drop was free from the disease.

[9] = system: Phytophthora infestans; type: in vivo; details: Tomato late blight, 5 days after inoculation
[10] = system: Botrytis cinerea; experiment: Effect on Cucumber gray mold (cotyledon paper disc test); type: in vivo; details: 3 days after inoculation
[11] = conc. of active ingredient 20 ppm
[12] = conc. of active ingredient 100 ppm
[13] = conc. of active ingredient 200 ppm
[14] = conc. of active ingredient 4 ppm

| Compound | melting point [°C] | Preventive rate (%) [1, 11] [%] | Preventive rate (%) [1, 12] [%] | Preventive rate (%) [2, 11] [%] | Preventive rate (%) [2, 12] [%] | Preventive rate (%) [3, 11] [%] | Preventive rate (%) [3, 12] [%] | Preventive rate (%) [4, 11] [%] | Preventive rate (%) [4, 12] [%] | Preventive rate (%) [5, 11] [%] | Preventive rate (%) [5, 12] [%] | Preventive rate (%) [6, 11] [%] | Preventive rate (%) [6, 12] [%] | Number of lesions formed within the mark to the tip [7, 13] | Preventive rate (%) [7, 13] [%] | Rate of the translocation perfect preventive conc. (%) [7, 13] [%] | Index [8] | Preventive rate (%) [9, 11] [%] | Preventive rate (%) [9, 12] [%] | Preventive rate (%) [10, 11] [%] | also measured |
| --- | --- | --- | --- | --- | --- | --- | --- | --- | --- | --- | --- | --- | --- | --- | --- | --- | --- | --- | --- | --- | --- |
| CON=C1COc2cc(OCc3ccccc3/C(=N\OC)C(=O)OC)ccc21 [a-4, (E) methyl methoxyimino-[2-(3-methoxyimino-2,3-dihydrobenzofuran-6-yloxymethyl)-phenyl]acetate] | 108 to 110 | 86 | 90 | 94 | 94 | 75 | 80 | 93 | 100 | 93 | 92 | 94 | 98 |  |  |  |  |  |  |  |  |
| CNC(=O)/C(=N/OC)c1ccccc1COc1ccc2c(c1)OCC2=NOC [a-5, (E) methoxyimino-[2-(3-methoxyimino-2,3-dihydro-benzofuran-6-yloxymethyl)phenyl]-N-methyl-acetamide] | 143 to 145 | 90 | 96 | 88 | 94 | 89 | 96 | 95 | 100 | 70 | 84 | 100 | 100 | 0 | 100 | 100 | 3 (At least 40% of the area of the leaf was free from the disease.) | 97 | 100 |  |  |
| CON=C1COc2cc(OCc3ccccc3N(OC)C(=O)OC)ccc21 [a-7, methyl N-[2-(3-methoxyimino-2,3-dihydro-benzofuran-6-yloxymethyl)-phenyl]-N-methoxycarbamate] | 102 to 103 |  |  | 94 | 97 |  |  |  |  |  |  | 99 | 100 |  |  |  |  |  |  | 56 | Preventive rate (%) [10, 12]: 97% |
| CNC(=O)N(OC)c1ccccc1COc1ccc2c(c1)OCC2=NOC [a-8, N-[2-(3-methoxyimino-2,3-dihydrobenzofuran-6-yloxymethyl)phenyl]-N-methoxy-N′-methylurea] | 109 to 112 |  |  | 88 | 94 |  |  |  |  |  |  | 99 | 100 |  |  |  |  |  |  |  | Preventive rate (%) [2, 14]: 75% |
| CNC(=O)/C(=N/OC)c1ccccc1COc1ccc2c(c1C)OCC2=NOC [a-16] |  | 89 | 96 | 100 | 100 | 95 | 98 | 100 | 100 | 50 | 92 | 100 | 100 | 0 | 100 | 100 | 3 (At least 40% of the area of the leaf was free from the disease.) | 97 | 100 | 84 | Preventive rate (%) [10, 14]: 42%; Preventive rate (%) [10, 12]: 87%; Preventive rate (%) [1, 14]: 86%; Preventive rate (%) [2, 14]: 100%; Preventive rate (%) [3, 14]: 75%; Preventive rate (%) [6, 14]: 100%; Preventive rate (%) [9, 14]: 91% |
| CNC(=O)/C(=N/OC)c1ccccc1COc1cc2c(cc1C)C(=NOC)CO2 [a-27] |  | 77 | 82 |  |  | 77 | 83 | 100 | 100 |  |  | 100 | 100 | 0 | 100 | 100 |  | 95 | 95 |  | Preventive rate (%) [4, 14]: 100%; Preventive rate (%) [6, 14]: 98%; Preventive rate (%) [9, 14]: 95% |
| CCON=C1COc2cc(OCc3ccccc3/C(=N\OC)C(=O)NC)ccc21 [a-37, (E) methoxyimino-[2-(3-ethoxyimino-2,3-dihydrobenzofuran-6-yloxymethyl)-phenyl]-N-methyl-acetamide] | 110 to 113 |  |  | 100 | 100 |  |  |  |  |  |  | 99 | 100 |  |  |  |  |  |  | 100 | Preventive rate (%) [10, 12]: 100% |
| CNC(=O)C(=NOC)c1ccccc1COc1ccc2c(c1)OCCC2=NOC [c-5] |  | 97 | 99 | 100 | 100 | 35 | 100 |  |  | 39 | 89 | 96 | 100 | 0 | 100 | 100 | 3 (At least 40% of the area of the leaf was free from the disease.) | 88 | 94 |  |  |
| COC=C(C(=O)OC)c1ccccc1COc1ccc2c(c1C)OCCC2=NOC [c-13] |  | 94 | 100 | 100 | 100 | 93 | 100 | 100 | 100 |  |  | 100 | 100 |  |  |  |  | 100 | 100 | 49 | Preventive rate (%) [10, 12]: 58%; Number of lesions formed within the mark to the tip [7, 12]: 0; Preventive rate (%) [7, 12]: 100%; Rate of the translocation perfect preventive conc. (%) [7, 12]: 100%; Preventive rate (%) [2, 14]: 100%; Preventive rate (%) [3, 14]: 82%; Preventive rate (%) [4, 14]: 100%; Preventive rate (%) [6, 14]: 100%; Preventive rate (%) [9, 14]: 95% |
| CNC(=O)C(=NOC)c1ccccc1COc1ccc2c(c1)CCC2=NOC [e-5] |  | 97 | 100 | 100 | 100 | 84 | 90 | 95 | 100 |  |  | 99 | 100 | 0 | 100 | 100 | 3 (At least 40% of the area of the leaf was free from the disease.) | 95 | 98 |  |  |
| CNC(=O)C(=NOC)c1ccccc1COc1cc2c(cc1C)C(=NOC)CC2 [e-27] |  |  |  | 100 | 100 | 99 | 99 | 99 | 100 |  |  | 100 | 100 |  |  |  |  | 100 | 100 |  | Number of lesions formed within the mark to the tip [7, 12]: 0; Preventive rate (%) [7, 12]: 100%; Rate of the translocation perfect preventive conc. (%) [7, 12]: 100%; Preventive rate (%) [2, 14]: 100%; Preventive rate (%) [3, 14]: 96%; Preventive rate (%) [4, 14]: 99%; Preventive rate (%) [6, 14]: 100%; Preventive rate (%) [9, 14]: 100% |
